Data as given in patent US10670605B2, “Cysteine reactive probes and uses thereof” (The Scripps Research Institute, priority 2015, dated 2020).
Blank lines part the entries; values can stand above or below the molecule they belong to. *: point of attachment. Cbz = O=C(OCc1ccccc1)*; CH2F = FC*

What was measured:
primary human T cells = assay: FasL-induced apoptosis in activated primary T cells; format: cell-based; conditions: anti-CD3, anti-CD28-activated primary human T cells
pro-CASP10 = pro-CASP10 (Homo sapiens, UniProt Q92851); assay: Blockade of probe 61 labeling of pro-CASP10; format: binding; conditions: 300 nM protein in MDA-MB-231 lysate; read-out: apparent IC50 for blockade of 61 labeling of pro-CASP10
Sequence of pro-CASP10 (Q92851 220-521): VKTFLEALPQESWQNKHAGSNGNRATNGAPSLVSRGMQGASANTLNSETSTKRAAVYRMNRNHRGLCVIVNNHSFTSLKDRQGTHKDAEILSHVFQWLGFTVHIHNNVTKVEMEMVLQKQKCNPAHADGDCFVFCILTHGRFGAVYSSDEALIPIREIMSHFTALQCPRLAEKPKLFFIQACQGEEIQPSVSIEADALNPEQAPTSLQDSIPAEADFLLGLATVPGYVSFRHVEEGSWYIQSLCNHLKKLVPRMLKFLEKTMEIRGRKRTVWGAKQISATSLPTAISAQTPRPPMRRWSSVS

pro-CASP8 = biological target: T1, pro-CASP8 (Homo sapiens, UniProt Q14790, D374A/D384A); assay: Click probe 61 labeling of pro-CASP8 and its competition; format: binding; conditions: 300 nM protein in MDA-MB-231 lysate; read-out: apparent IC50 for blockade of 61 labeling of pro-CASP8
T1 construct: a truncated CASP8 (residues 217-479) without the CARD domain; His6 (C); made in house; host or cells: E. coli BL21(DE3)pLysS
T1 sequence (Q14790 217-479 D374A/D384A): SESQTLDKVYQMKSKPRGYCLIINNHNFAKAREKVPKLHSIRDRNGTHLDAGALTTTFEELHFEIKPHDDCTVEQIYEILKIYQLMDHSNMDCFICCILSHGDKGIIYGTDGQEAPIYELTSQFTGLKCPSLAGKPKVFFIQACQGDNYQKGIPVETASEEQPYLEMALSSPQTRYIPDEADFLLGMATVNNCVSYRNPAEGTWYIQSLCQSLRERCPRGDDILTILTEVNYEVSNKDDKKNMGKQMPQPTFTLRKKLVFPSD

Jurkat cells [1] = assay: FasL-induced (extrinsic) apoptosis, CellTiter-Glo viability; format: cell-based, human
CASP8 = biological target: T2, CASP8 (Homo sapiens, UniProt Q14790); assay: Quantitative proteomics (ABPP-SILAC) with probe 61 in cells; format: cell-based; conditions: primary human T cells and Jurkat cells
T2 construct: caspases measured by quantitative proteomics in Jurkat cells treated with 7, 63-R, or 62 followed by probe 61; endogenous in cells; host or cells: Jurkat cells (SILAC), treated in situ
T2 sequence (Q14790 217-479): as the sequence (Q14790 217-479 D374A/D384A) above, with A158D, A168D counted along it

active CASP10 = biological target: T3, active CASP10 (Homo sapiens, UniProt Q92851); assay: Active CASP10 activity assay (AEVD-AMC substrate); format: biochemical; conditions: fragments 25 μM; DEVD-CHO 20 μM
T3 sequence (Q92851 220-415 limits assumed): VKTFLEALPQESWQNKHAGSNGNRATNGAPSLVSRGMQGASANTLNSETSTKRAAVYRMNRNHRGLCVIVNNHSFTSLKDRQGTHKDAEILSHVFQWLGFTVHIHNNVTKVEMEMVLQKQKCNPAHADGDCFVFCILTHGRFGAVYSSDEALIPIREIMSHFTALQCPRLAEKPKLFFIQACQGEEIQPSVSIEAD
T3 sequence (Q92851 416-521 limits assumed): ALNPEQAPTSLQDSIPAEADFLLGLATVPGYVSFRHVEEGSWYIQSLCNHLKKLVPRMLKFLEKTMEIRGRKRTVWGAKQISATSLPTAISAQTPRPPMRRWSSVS

active CASP8 [2] = biological target: T4, active CASP8 (Homo sapiens, UniProt Q14790); assay: Rho-DEVD-AOMK probe labeling of active CASP8; conditions: 7 50 μM; Ac-DEVD-CHO 20 μM
T4 sequence (Q14790 217-374 limits assumed): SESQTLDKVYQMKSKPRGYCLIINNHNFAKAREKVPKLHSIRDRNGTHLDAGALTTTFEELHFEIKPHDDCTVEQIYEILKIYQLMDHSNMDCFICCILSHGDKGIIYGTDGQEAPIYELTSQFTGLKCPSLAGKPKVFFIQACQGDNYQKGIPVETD
T4 sequence (Q14790 385-479 limits assumed): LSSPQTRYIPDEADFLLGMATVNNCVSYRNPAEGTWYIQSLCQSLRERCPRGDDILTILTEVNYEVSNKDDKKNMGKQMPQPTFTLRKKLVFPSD

active CASP8 [3] = biological target: T4, active CASP8; assay: CASP8 in vitro activity assay (substrate); format: biochemical; parameters: recombinant, purified active-CASP8 and active-CASP3 added to MDA-MB-231 cell lysates; His6 (C); made in house; host or cells: E. coli BL21(DE3)pLysS; conditions: fragments 100 μM; DEVD-CHO 20 μM
Experimental: Caspase 3 and 8 assays were conducted with CASP8 activity assay kit (BioVision, K112-100) and Caspase 3 activity assay kit (Invitrogen, EnzChek® Caspase-3 Assay Kit), following the manufacturer's instructions. Briefly, recombinant Caspase 3 (10 μM) was added to soluble Ramos lysates (1 mg/mL) to a 100 nM final concentration of protease. Caspase 8 (30 μM) was added to soluble Ramos lysates to a 1 μM final concentration of protease. In triplicate, 50 μL lysate was treated with either DMSO, DEVD-CHO (“DEVD” disclosed as SEQ ID NO: 857) (20 μM) or the indicated compounds (100 μM) for 1 h, following which 50 μL of 2× reaction buffer containing 10 mM DTT and 5 μL substrate (4 mM stock in DMSO of IETD-AFC (“IETD” disclosed as SEQ ID NO: 858) for CASP8; 10 mM stock in DMSO of DEVD-AMC (“DEVD” disclosed as SEQ ID NO: 857) for CASP3) was added to each well and the samples were incubated at ambient temperature for 2 h. Caspase activity was measured from the increase in fluorescence (excitation 380 nm emission 460 nm). Experiments were performed in triplicate. Background was calculated from samples lacking the recombinant caspase.

Jurkat cells [4] = assay: Staurosporine-induced (intrinsic) apoptosis, CellTiter-Glo viability; format: cell-based, human; conditions: 30 μM (VAD-FMK 100 μM), 30 min before STS, 6 h
Experimental: 4 mL of Jurkat cells in RPMI (1.5 million cells/mL) were treated with the indicated compound at 30 μM for 30 min (50 mM stock solution in DMSO). Z-VAD-FMK (EMD Millipore Biosciences, 627610) and was used at a final concentration of 100 μM. After pre-incubation, FASL (4 μL of […] stock solution of SuperFasLigandm in water, final concentration=100 ng/mL, Enzo life Sciences) or staurosporine (8 μL of 1 mM stock solution in DMSO, final concentration=2 μM, Fisher Scientific, 50664333). […] The gels were transferred to nitrocellulose membranes and were immunoblotted overnight with the indicated antibodies. For measurements of cell viability, in quadruplicate for each condition, 150,000 cells (100 μL of 1.5 million cells/mL) were plated in Nunc™ MicroWell™ 96-Well Optical-Bottom Plates with Polymer Base (Fisher Scientific). Compounds, FASL and STS were used at the same concentrations indicated above with a 30 minute pre-incubation with compound, followed by 6 hours with either STS or FASL or DMSO. Cell viability was measured with CellTiter-Glo® Luminescent Cell Viability Assay (Promega) and was read on a Biotech Synergy 4 plate reader.

IC50 (pro-CASP10): > 100 µM
IC50 (pro-CASP8): 700 nM
blockade of CASP8 (chemical proteomics with probe 61) (CASP8): inhibited
Molecule: O=C(c1ccc(N2CCOCC2)cc1)N1CCC[C@@H](N(C(=O)CCl)c2ccccc2)C1 [63-R]
FasL-induced apoptosis (primary human T cells): substantial resistance
FasL-induced apoptosis (Jurkat cells [1]; Jurkat cells, concentration series, 4 h): fully blocked

activity of active CASP10 (substrate assay) (active CASP10): inhibited
Rho-DEVD-AOMK labeling of active CASP8 (active CASP8 [2]): blocked
CASP8 activity (substrate assay) (active CASP8 [3]): blocked
Molecule: Ac-DEVD-CHO [reference compound]

Molecule: Cbz-Val-Ala-Asp-CH2F [reference compound]
STS-induced intrinsic apoptosis (Jurkat cells [4]): prevented
FasL-induced apoptosis (Jurkat cells [1]; 30 μM (VAD-FMK 100 μM), 30 min before FASL, 6 h): prevented
